Measured values reported in patent US20150352114A1, “MITOTIC KINESIN Eg5 INHIBITING ANTICANCER AGENTS” (THE CLEVELAND CLINIC FOUNDATION, priority 2014, published 2015).

Assays:
[1] = tested on: 08-387 GSCs; experiment: Wound assay, tubulin immunofluorescence; assay type: cell-based, human; details: 200 nM; 6 hours
Procedure: Interphase enriched 08-387 GSCs were seeded within two-well culture inserts (ibidi, Verona, Wis.) at 2×10^5 cells per ml in triplicate (final volume of 80 μl per well) onto Geltrex coated glass bottom 6 well pates (MatTek Corp., Ashland, Mass.). After 2 hours, the insert was removed and cells were exposed to vehicle or 200 nM ispinesib. 6 hours later, cells were fixed and processed for immunofluorescence as described for atubulin. 20 Z-stack images at the wound edge were captured per condition using the 40× objective on a Leica DMI6000 inverted microscope. Images were then exported aa tif files using Velocity software (Mountain View, Calif.) and analyzed in ImageJ (NIH, Bethesda, Md.). Regions of interest were drawn for the primary cell layer at the wound edge for 3 independent scans per Z-stack representing the top, middle and bottom portion of the cell layer and pixel intensity and area measured.

[2] = tested on: GSCs from xenograft 3691; experiment: Intracranial implantation of pre-exposed GSCs (tumor initiation); assay type: in vivo, mice
Procedure: All animal studies described were approved by the Cleveland Clinic Foundation Institutional Animal Care and Use Committee and conducted in accordance with the NIH Guide for the Care and Use of Laboratory Animals. For subcutaneous tumor studies, 1×10^5 freshly dissociated GBM cells from a xenograft originally derived from a primary GBM patient specimen (3691) were injected into the flanks of 10 six week old female athymic nu/nu mice. Tumors were allowed to reach approximately 0.12 cm^3, at which point animals were randomized into either vehicle control (DMSO) group or ispinesib (10 mg/kg given daily for 7 consecutive days by intraperitoneal injection) (Selleck Chemicals, Houston, Tex.). Tumors were monitored and measured daily using perpendicular diameter measurements for 7 days. Tumor volume was calculated using the ellipsoid formula π/6×larger diameter×(smaller diameter)^2. After the last treatment on Day 7, tumors were removed and weighed then processed for immunofluorescence (as described below). For intracranial implantation studies to evaluate tumor initiation by GSCs, the cells were isolated as described below and pre-exposed to drug or vehicle either in vitro or in vivo. […] Mice were monitored daily for neurological impairment at which time they were sacrificed and brains removed to evaluate for tumor development.

[3] = tested on: pCRMP2 (T514) in interphase GSCs; experiment: CRMP2 phosphorylation immunoblot; assay type: cell-based, human; details: 200 nM; 6-hour time course; GSCs
Procedure: FIGS. 8(A-B) illustrate that Eg5 impacts microtubule growth through the CRMP-tubulin deposition pathway; (A) 08-387 GSCs enriched in interphase were exposed to vehicle (DMSO) or ispinesib (200 nM) and harvested for whole cell lysates every two hours over a 6 hour time course. Resulting lysates were probed for CRMP2 and pCRMP2 (T514); (B) Human brain microvascular endothelial cells (HuBrMVECs) were treated with vehicle (DMSO) or ispinesib (200 nM) and harvested for whole cell lysates every three hours over a 6 hour time course. Resulting lysates were probed for CRMP2 and pCRMP2 (T514); For all immunoblots, βactin served as a loading control. Molecular weight (MW) of resulting bands is given in kilodaltons (kD).
Protein extracts were made using a 50 mM Tris pH 8.0, […] NaCl, 0.5% NP-40 lysis solution. Resulting lysates were ran on 10% SDS-PAGE gels and transferred to Immobilon-FL PVDF (Millipore Corp., Billerica, Mass.). The membranes were blocked with 5% (wt/vol) bovine serum albumin in PBS-Tween-20 (0.2% vol/vol) and probed with primary antibodies against Eg5 (mouse, 1:4000, BD Biosciences, San Jose, Calif.), Olig2 (rabbit, 1:1000, abcam, San Francisco, Calif.), GFAP (DAKO; 1:10,000, Carpinteria, Calif.), CRMP2 (mouse, 1:1000, abgent, San Diego, Calif.), pCRMP2(T514) (rabbit, 1:1000, Cell Signaling, Beverly, Mass.), or β-actin (mouse, 1:8000, Sigma-Aldrich, St. Louis, Mo.) as a loading control. Secondary antibodies (LI-COR) were incubated in TBST+0.02% SDS and visualized with the LI-COR Odyssey near infrared imaging system (Lincoln, NB).

`Cc1ccc(C(=O)N(CCCN)[C@@H](c2nc3cc(Cl)ccc3c(=O)n2Cc2ccccc2)C(C)C)cc1` [ispinesib, N-(3-amino-propyl)-n-[R-1-(3-benzyl-7-choloro-4-oxo-3,4-dihydroquinazolin-2-yl)-2-methyl-propyl]-4-methyl-benzamide methanesulfonate] was tested, and the “polymerized tubulin at wound edge” value [1] was “significant decrease in polymerized tubulin”, the tumor initiation ([2]; GSCs from subcutaneous tumors treated in vivo 3 days with 10 mg/kg, 1,000 or 10,000 cells per mouse) was “reduced their tumor initiation phenotype” and the secondary tumor initiation ([2]; GSCs pretreated in vitro 18 hours with 3 nM, 2,500 or 25,000 cells per mouse) was “significant impairment of secondary tumor initiation”. For the same compound, the “phospho-CRMP2 (T514)” value [3] was “significant increase”.
